Measured values published in patent publication US8946273B2, “S-Triazolyl alpha-mercapto acetanilides as inhibitors of HIV reverse transcriptase” (priority 2011, dated 2015).
pEC50, pIC50: −log10 of the molar value. Where two headings read alike, the source gives them in different places.

Columns and labels:
[1] = biological target: mutant HIV reverse transcriptases (Human immunodeficiency virus type 1, UniProt P12497, Y775L, cells depend on it); type: cell-based
[2] = biological target: mutant HIV reverse transcriptases (Human immunodeficiency virus type 1, UniProt P12497, Y768C, cells depend on it); type: cell-based
[3] = system: wild type HIV-1; experiment: microbe, parasite or virus in culture; type: cell-based, human immunodeficiency virus type 1 (HIV-1)
[4] = biological target: T1, wild-type HIV reverse transcriptase (Human immunodeficiency virus type 1 group M subtype B, UniProt P04585); experiment: Activity on wild type reverse transcriptase (Table 1 IC50 WT); type: biochemical
T1 construct: wild-type and four mutant HIV reverse transcriptases
Protocol: Using similar methods as described above, 2-[5-bromo-4-(4-cyclopropylnaphthalen-1-yl)-4H-[1,2,4]triazol-3-ylsulfanyl]-N-(2-methyl-4-sulfamoylphenyeacetamide and 2-[5-bromo-4-(4-ethylnaphthalen-1-yl)-4H-[1,2,4]triazol-3-ylsulfanyl]-N-(2-chloro-4-sulfamoylphenyl)-acetamide were synthesized, as were the N-4-carbamyl analog, 2-[5-bromo-4-(4-ethyl-naphthalen-1-yl)-4H-[1,2,4]triazol-3-ylsulfanyl]-N-(2-chloro-4-carbamoylphenyl)-acetamide and the N-4-carboxyl analog. Each of the compounds was tested against a panel of mutant HIV reverse transcriptases, including 20 of the 22 of the mutants that are found in about 2% or more of the patient samples that are resistant to the most widely used non-nucleoside HIV-RT inhibitor efavirenz ((4S)-6-chloro-4-(cyclopropylethynyl)-1,4-dihydro-4-(trifluoromethyl)-2H-3,1-benzoxazin-2-one). […] In most cases both criteria were met. […] […].
Compounds of the invention were tested against the wild-type and four mutant HIV reverse transcriptases. The results are listed in Table 1 as EC50 (nM) and IC50 (nM). In the Table, A represents <50 nM, B is between 50 and 100 nM, and C is >100 nM. ND is not determined.

[5] = Human immunodeficiency virus 1, Hela-JC53, read-out: EC50 WT
[6] = read-out: EC50 WT, wild-type (WT) HIV-1
[7] = read-out: IC50 WT RT, wild-type (WT) RT

| Compound | pEC50 [1] | pEC50 [2] | pEC50 [3, 5] | pIC50 [4] | pEC50 [3, 6] | pIC50 [4, 7] |
| --- | --- | --- | --- | --- | --- | --- |
| CCc1ccc(-n2c(CF)nnc2SCC(=O)Nc2ccc(S(N)(=O)=O)cc2C)c2ccccc12 [compound 49] | < 7.00 | > 7.30 | > 7.30 | > 7.30 | – | – |
| Cc1cc(C2CC2)c2ccccc2c1-n1c(Br)nnc1SCC(=O)Nc1ccc(S(N)(=O)=O)cc1Cl [compound 50] | > 7.30 | > 7.30 | > 7.30 | > 7.30 | – | – |
| CNS(=O)(=O)c1ccc(NC(=O)CSc2nnc(C(F)F)n2-c2ccc(C)c3c2CCCC3)c(Cl)c1 [compound 51] | > 7.30 | > 7.30 | > 7.30 | > 7.30 | – | – |
| Cc1cc(S(N)(=O)=O)ccc1NC(=O)CSc1nnc(CF)n1-c1c(C)cc(C)c2ccccc12 [compound 52] | > 7.30 | > 7.30 | > 7.30 | > 7.30 | – | – |
| CNS(=O)(=O)c1ccc(NC(=O)CSc2nnc(C(F)F)n2-c2ccc(C)c3ccccc23)c(Cl)c1 [compound 54] | 7.00 to 7.30 | > 7.30 | > 7.30 | > 7.30 | – | – |
| CCc1ccc(-n2c(CF)nnc2SCC(=O)Nc2ccc(S(=O)(=O)NC)cc2Cl)c2ccccc12 [compound 55] | 7.00 to 7.30 | > 7.30 | > 7.30 | 7.00 to 7.30 | – | – |
| CCOC(=O)C(C)NS(=O)(=O)c1ccc(NC(=O)CSc2nnc(C(F)F)n2-c2ccc(C)c3c2CCCC3)c(Cl)c1 (stereo not drawn) [compound 56] | < 7.00 | > 7.30 | > 7.30 | > 7.30 | – | – |
| Cc1ccc(-n2c(SCC(=O)Nc3ccc(S(=O)(=O)NCCN4CCOCC4)cc3Cl)nnc2C(F)F)c2c1CCCC2 [compound 57] | 7.00 to 7.30 | > 7.30 | > 7.30 | > 7.30 | – | – |
| Cc1ccc(-n2c(SCC(=O)Nc3ccc(S(=O)(=O)NCCC(=O)O)cc3Cl)nnc2C(F)F)c2c1CCCC2 [compound 58] | < 7.00 | < 7.00 | 7.00 to 7.30 | > 7.30 | – | – |
| Cc1ccc(-n2c(SCC(=O)Nc3ccc(S(=O)(=O)NC(C)C(=O)O)cc3Cl)nnc2C(F)F)c2c1CCCC2 (stereo not drawn) [compound 59] | < 7.00 | < 7.00 | < 7.00 | > 7.30 | – | – |
| Cc1ccc(-n2c(SCC(=O)Nc3ccc(S(=O)(=O)NC(C(=O)O)C(C)C)cc3Cl)nnc2C(F)F)c2c1CCCC2 (stereo not drawn) [compound 60] | < 7.00 | < 7.00 | < 7.00 | > 7.30 | – | – |
| NS(=O)(=O)c1ccc(NC(=O)CSc2nnc(Br)n2-c2ccc(F)c3ccccc23)c(Cl)c1 [compound 61] | > 7.30 | > 7.30 | > 7.30 | > 7.30 | – | – |
| Cc1cc(S(N)(=O)=O)ccc1NC(=O)CSc1nnc(Br)n1-c1ccc(F)c2ccccc12 [compound 62] | < 7.00 | > 7.30 | > 7.30 | > 7.30 | – | – |
| Cc1ccc2c(C)cc(C)c(-n3c(SCC(=O)Nc4ccc(S(N)(=O)=O)cc4Cl)nnc3C(F)F)c2n1 [compound 63] | > 7.30 | > 7.30 | > 7.30 | > 7.30 | – | – |
| Cc1ccc2c(C)cc(C)c(-n3c(SCC(=O)Nc4ccc(S(N)(=O)=O)cc4C)nnc3C(F)F)c2n1 [compound 64] | > 7.30 | > 7.30 | > 7.30 | > 7.30 | – | – |
| Cc1cc(S(N)(=O)=O)ccc1NC(=O)CSc1nnc(CF)n1-c1ccc(C)c2c1CCCC2 [compound 65] | 7.00 to 7.30 | > 7.30 | > 7.30 | > 7.30 | – | – |
| NS(=O)(=O)c1ccc(NC(=O)CSc2nncn2-c2ccc(C3CC3)c3ccccc23)c(Cl)c1 [compound 66] | < 7.00 | > 7.30 | > 7.30 | > 7.30 | – | – |

| Compound | pEC50 [1] | pEC50 [2] | pEC50 [3, 5] | pIC50 [4] | pEC50 [3, 6] | pIC50 [4, 7] |
| --- | --- | --- | --- | --- | --- | --- |
| CCc1ccc(-n2c(CF)nnc2SCC(=O)Nc2ccc(S(N)(=O)=O)cc2Cl)c2c1CCCC2 [compound 67] | > 7.30 | > 7.30 | > 7.30 | > 7.30 | – | – |
| NS(=O)(=O)c1ccc(NC(=O)CSc2nnc(C(F)F)n2-c2ccc(C3CCCC3)c3ccccc23)c(Cl)c1 [compound 68] | < 7.00 | > 7.30 | > 7.30 | > 7.30 | – | – |
| NS(=O)(=O)c1ccc(NC(=O)CSc2nnc(C(F)F)n2-c2ccc(C3CCC3)c3ccccc23)c(Cl)c1 [compound 69] | > 7.30 | > 7.30 | > 7.30 | > 7.30 | – | – |
| CCc1ccc(-n2c(I)nnc2SCC(=O)Nc2ccc(S(N)(=O)=O)cc2Cl)c2ccccc12 [compound 70] | > 7.30 | > 7.30 | > 7.30 | > 7.30 | – | – |
| CC(C)c1ccc(-n2c(SCC(=O)Nc3ccc(S(N)(=O)=O)cc3Cl)nnc2C(F)F)c2ccccc12 [compound 71] | > 7.30 | > 7.30 | > 7.30 | > 7.30 | – | – |
| COc1ccc2c(C3CC3)ccc(-n3c(Br)nnc3SCC(=O)Nc3ccc(S(N)(=O)=O)cc3Cl)c2c1 [compound 72] | > 7.30 | > 7.30 | > 7.30 | > 7.30 | – | – |
| CCc1ccc(-n2c(Br)nnc2SCC(=O)Nc2ccc(S(N)(=O)=O)cc2Br)c2ccccc12 [compound 73] | > 7.30 | > 7.30 | > 7.30 | > 7.30 | – | – |
| COc1ccc2c(C)ccc(-n3c(Br)nnc3SCC(=O)Nc3ccc(S(N)(=O)=O)cc3Br)c2c1 [compound 74] | > 7.30 | > 7.30 | > 7.30 | > 7.30 | – | – |
| NS(=O)(=O)c1ccc(NC(=O)CSc2nnc(Br)n2-c2ccc(C3CC3)cc2Cl)c(Cl)c1 [compound 75] | > 7.30 | > 7.30 | > 7.30 | > 7.30 | – | – |
| Cc1cc(C)c2ccccc2c1-n1c(SCC(=O)Nc2ccc(S(N)(=O)=O)cc2Cl)nnc1C(F)(F)F [compound 83] | > 7.30 | > 7.30 | > 7.30 | > 7.30 | – | – |
| Cc1cc(C)c2ccccc2c1-n1c(SCC(=O)Nc2ccc(S(N)(=O)=O)cc2Cl)nnc1C(F)(F)F [compound 84] | > 7.30 | > 7.30 | – | – | > 7.30 | > 7.30 |
| Cc1cc(S(N)(=O)=O)ccc1NC(=O)CSc1nnc(Br)n1-c1c(Cl)cc(C2CCC2)c2ccccc12 [compound 92] | > 7.30 | > 7.30 | > 7.30 | > 7.30 | – | – |
| CCc1ccc(-n2c(Br)nnc2SCC(=O)Nc2ccc(C(=O)NCC(=O)OC)cc2Cl)c2ccccc12 [compound 98] | > 7.30 | > 7.30 | > 7.30 | > 7.30 | – | – |
| NS(=O)(=O)c1ccc(NC(=O)CSc2nnc(C(F)F)n2-c2ccc(C3CCCC3)c3ccccc23)c(Cl)c1 [compound 99] | < 7.00 | > 7.30 | – | – | > 7.30 | > 7.30 |
| NS(=O)(=O)c1ccc(NC(=O)CSc2nnc(C(F)F)n2-c2ccc(C3CCC3)c3ccccc23)c(Cl)c1 [compound 100] | > 7.30 | > 7.30 | – | – | > 7.30 | > 7.30 |
| CCOC(=O)CNC(=O)c1ccc(NC(=O)CSc2nnc(Br)n2-c2ccc(C3CC3)c3ccccc23)c(Cl)c1 [compound 101] | > 7.30 | > 7.30 | > 7.30 | > 7.30 | – | – |
